This test has as its system BDF1 mice, Adenocarcinoma 755 s.c., tumor weight T/C. Kind of test: NCI In Vivo Anticancer Drug Screen. Data for tumor model Adenocarcinoma 755 (subcutaneous) in B6D2F1 (BDF1) mice. The following applies: endpoint: mean tumor weight, higher = larger tumour. Summed up:
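Compound activity was tested in mice carrying transplanted tumors. Survival or tumor size was measured, and each value is the treated-group measurement divided by that of the vehicle-treated control group (T/C).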

The mark [1] stands for this setting: dose: 30.0 mg/kg/injection, schedule: Q01DX011 (ip), vehicle: carboxymethylcellulose (CMC).
Setting [2] is: dose: 60.0 mg/kg/injection, schedule: Q01DX011 (ip), vehicle: carboxymethylcellulose (CMC).
Where [3] appears, read: dose: 10.0 mg/kg/injection, schedule: Q01DX011 (ip), vehicle: saline.
Where [4] appears, read: dose: 25.0 mg/kg/injection, schedule: Q01DX011 (ip), vehicle: methylcellulose (MC).
The mark [5] stands for this setting: dose: 50.0 mg/kg/injection, schedule: Q01DX011 (ip), vehicle: methylcellulose (MC).

Usually T/C stands for the result in the treated group divided by that in the control group, in per cent.

Structures are written as SMILES. Where “and” joins values, the source holds several entries; their conditions need not be identical. Equal entries are not always repeated.

For `CC(=O)OCC1OC(n2cnc3c(=O)[nH]c(N)nc32)C(OC(C)=O)C1OC(C)=O` (configuration not stated), the T/C is, setting by setting: under setting [1], 59 % of control; under setting [2], 49 % of control; (dose: 120.0 mg/kg/injection, schedule: Q01DX011 (ip), vehicle: carboxymethylcellulose (CMC)) 57 % of control; (dose: 240.0 mg/kg/injection, schedule: Q01DX011 (ip), vehicle: carboxymethylcellulose (CMC)) 51 % of control; (dose: 400.0 mg/kg/injection, schedule: Q01DX011 (ip), vehicle: carboxymethylcellulose (CMC)) 87 % of control; (dose: 600.0 mg/kg/injection, schedule: Q01DX011 (ip), vehicle: carboxymethylcellulose (CMC)) 83 % of control.

As for `Nc1ccc2cc3ccccc3cc2c1`, the T/C was 80 % of control under setting [3]; 62 % of control (dose: 10.5 mg/kg/injection, schedule: Q01DX011 (ip), vehicle: carboxymethylcellulose (CMC)); 40 % of control (dose: 21.0 mg/kg/injection, schedule: Q01DX011 (ip), vehicle: carboxymethylcellulose (CMC)); 41 % of control (dose: 21.0 mg/kg/injection, schedule: Q01DX011 (ip), vehicle: saline); 37 % of control (dose: 42.0 mg/kg/injection, schedule: Q01DX011 (ip), vehicle: saline); 29 % of control (dose: 84.0 mg/kg/injection, schedule: Q01DX011 (ip), vehicle: saline).

Take `O=CN(O)CC(=O)O`: the T/C (dose: 62.5 mg/kg/injection, schedule: Q01DX011 (ip), vehicle: carboxymethylcellulose (CMC)) was 98 % of control; the T/C (dose: 125.0 mg/kg/injection, schedule: Q01DX011 (ip), vehicle: carboxymethylcellulose (CMC)) was 86 % of control; the T/C (dose: 250.0 mg/kg/injection, schedule: Q01DX011 (ip), vehicle: carboxymethylcellulose (CMC)) is 85 % of control.

As for `COC1CC(OS(C)(=O)=O)C(COS(C)(=O)=O)O1` (configuration not stated), the T/C was 120 % of control (dose: 25.0 mg/kg/injection, schedule: Q01DX011 (ip), vehicle: saline); 117 % of control (dose: 75.0 mg/kg/injection, schedule: Q01DX011 (ip), vehicle: saline); 104 % of control (dose: 225.0 mg/kg/injection, schedule: Q01DX011 (ip), vehicle: saline).

As for `C[C@]12CCC(=O)C=C1CC[C@@H]1[C@@H]2[C@@H](O)C[C@@]2(C)[C@H]1CC[C@]2(O)C(=O)COC(=O)COCC(=O)O`, the T/C is, setting by setting: (dose: 50.0 mg/kg/injection, schedule: Q01DX011 (ip), vehicle: steriod suspending solution) 53 % of control; (dose: 50.0 mg/kg/injection, schedule: Q01DX011 (sc), vehicle: steriod suspending solution) 54 % of control; (dose: 100.0 mg/kg/injection, schedule: Q01DX011 (ip), vehicle: steriod suspending solution) 22 % of control; (dose: 100.0 mg/kg/injection, schedule: Q01DX011 (sc), vehicle: steriod suspending solution) 62 % of control; (dose: 200.0 mg/kg/injection, schedule: Q01DX011 (ip), vehicle: steriod suspending solution) 12 % of control; (dose: 200.0 mg/kg/injection, schedule: Q01DX011 (sc), vehicle: steriod suspending solution) 56 % of control. In addition, under “dose: 400.0 mg/kg/injection, schedule: Q01DX011 (sc), vehicle: steriod suspending solution”, the T/C was 31 % of control.

Turning to `CC(C)Cn1cnc2c(SCC(=O)O)nc(N)nc21`, the T/C by setting is: under setting [4], 114 % of control; (dose: 75.0 mg/kg/injection, schedule: Q01DX011 (ip), vehicle: methylcellulose (MC)) 85 % of control; (dose: 225.0 mg/kg/injection, schedule: Q01DX011 (ip), vehicle: methylcellulose (MC)) 114 % of control.

Take `O=c1[nH]c(=O)n(C2CC(O)C(CO)O2)cc1F` (configuration not stated): the T/C was 124 % of control (dose: 13.12 mg/kg/injection, schedule: Q01DX011 (ip), vehicle: carboxymethylcellulose (CMC)); 72 % of control (dose: 15.0 mg/kg/injection, schedule: Q01DX011 (ip), vehicle: carboxymethylcellulose (CMC)); 66 % of control (dose: 19.0 mg/kg/injection, schedule: Q01DX011 (ip), vehicle: other); 54 % of control under setting [4]; 68 % of control (dose: 26.25 mg/kg/injection, schedule: Q01DX011 (ip), vehicle: carboxymethylcellulose (CMC)); 80 % of control (dose: 30.0 mg/kg/injection, schedule: Q01DX006 (ip), vehicle: other). For the same molecule, the T/C reads like this: under setting [1], 37 % of control; (dose: 37.5 mg/kg/injection, schedule: Q01DX011 (ip), vehicle: other) 28 % of control; under setting [5], 25 % of control; (dose: 52.5 mg/kg/injection, schedule: Q01DX011 (ip), vehicle: carboxymethylcellulose (CMC)) 59 % of control; (dose: 60.0 mg/kg/injection, schedule: Q01DX006 (ip), vehicle: other) 37 % of control; under setting [2], 14 % of control. Besides, the T/C is 3 % of control (dose: 75.0 mg/kg/injection, schedule: Q01DX011 (ip), vehicle: other); 6 % of control (dose: 100.0 mg/kg/injection, schedule: Q01DX011 (ip), vehicle: methylcellulose (MC)); 54 % of control (dose: 105.0 mg/kg/injection, schedule: Q01DX011 (ip), vehicle: carboxymethylcellulose (CMC)); 29 % of control (dose: 120.0 mg/kg/injection, schedule: Q01DX006 (ip), vehicle: other); 3 % of control (dose: 121.0 mg/kg/injection, schedule: Q01DX011 (ip), vehicle: carboxymethylcellulose (CMC)); 6 % of control (dose: 240.0 mg/kg/injection, schedule: Q01DX006 (ip), vehicle: other). The T/C (dose: 480.0 mg/kg/injection, schedule: Q01DX006 (ip), vehicle: other) was 2 % of control.

In the case of `CCC1CN1CC1CO1` (configuration not stated), the T/C by setting is: (dose: 5.0 mg/kg/injection, schedule: Q01DX011 (ip), vehicle: saline) 96 % of control; under setting [3], 99 % of control.

In the case of `CC1C[C@@H]2[C@H]([C@@H](O)C[C@@]3(C)[C@H]2CC[C@]3(O)C(=O)CF)[C@@]2(C)CCC(=O)C=C12` (some centres not stated), the T/C runs as follows: (dose: 1.2 mg/kg/injection, schedule: Q01DX011 (sc), vehicle: steriod suspending solution) 108 % of control; (dose: 2.5 mg/kg/injection, schedule: Q01DX011 (sc), vehicle: steriod suspending solution) 92 % of control; (dose: 8.0 mg/kg/injection, schedule: Q01DX011 (sc), vehicle: steriod suspending solution) 82 % of control; (dose: 10.0 mg/kg/injection, schedule: Q01DX011 (sc), vehicle: steriod suspending solution) 35 % of control; (dose: 16.0 mg/kg/injection, schedule: Q01DX011 (sc), vehicle: steriod suspending solution) 75 % of control; (dose: 20.0 mg/kg/injection, schedule: Q01DX011 (sc), vehicle: steriod suspending solution) 30 % of control. Further, the T/C runs as follows: (dose: 32.0 mg/kg/injection, schedule: Q01DX011 (sc), vehicle: steriod suspending solution) 55 % of control; (dose: 40.0 mg/kg/injection, schedule: Q01DX011 (sc), vehicle: steriod suspending solution) 13 % of control; (dose: 170.0 mg/kg/injection, schedule: Q01DX011 (sc), vehicle: steriod suspending solution) 5 % of control and 10 % of control; (dose: 340.0 mg/kg/injection, schedule: Q01DX011 (sc), vehicle: steriod suspending solution) 9 % of control and 13 % of control.

`Nc1nc2nc(/N=N/SCCO)[nH]c2c(=O)[nH]1`: the T/C under setting [4] was 65 % of control and the T/C under setting [5] was 39 % of control.

As to `O=C(O)CCC(=O)NO`, the T/C reads like this: (dose: 50.0 mg/kg/injection, schedule: Q01DX011 (ip), vehicle: carboxymethylcellulose (CMC)) 96 % of control; (dose: 100.0 mg/kg/injection, schedule: Q01DX011 (ip), vehicle: carboxymethylcellulose (CMC)) 98 % of control; (dose: 200.0 mg/kg/injection, schedule: Q01DX011 (ip), vehicle: carboxymethylcellulose (CMC)) 84 % of control.

On to `CC(CNC(=O)CCOS(C)(=O)=O)NC(=O)CCOS(C)(=O)=O` (configuration not stated), for which the T/C (dose: 14.0 mg/kg/injection, schedule: Q01DX011 (ip), vehicle: carboxymethylcellulose (CMC)) is 71 % of control; the T/C (dose: 28.0 mg/kg/injection, schedule: Q01DX011 (ip), vehicle: carboxymethylcellulose (CMC)) was 36 % of control and 60 % of control; the T/C (dose: 113.0 mg/kg/injection, schedule: Q01DX011 (ip), vehicle: carboxymethylcellulose (CMC)) was 2 % of control (2×) and 3 % of control; the T/C (dose: 225.0 mg/kg/injection, schedule: Q01DX011 (ip), vehicle: carboxymethylcellulose (CMC)) is 7 % of control.

Consider `Cc1ccccc1Nc1cc(=S)nc(N)[nH]1`, for which the T/C reads like this: (dose: 15.0 mg/kg/injection, schedule: Q01DX011 (ip), vehicle: methylcellulose (MC)) 122 % of control; (dose: 31.0 mg/kg/injection, schedule: Q01DX011 (ip), vehicle: methylcellulose (MC)) 91 % of control; (dose: 62.0 mg/kg/injection, schedule: Q01DX011 (ip), vehicle: methylcellulose (MC)) 92 % of control; (dose: 250.0 mg/kg/injection, schedule: Q01DX011 (ip), vehicle: methylcellulose (MC)) 84 % of control.
